According to the NIST ThermoML archive (doi:10.1021/je900916e):

Experiment: cn = amount concentration of the nth substance listed, in mol/dm3
Details: 101 kPa, Liquid, Advanced Conductivity Orion 162A

C[N+](C)(C)C.O=C([O-])C(F)(F)C(F)(F)C(F)(F)C(F)(F)C(F)(F)C(F)(F)C(F)(F)F [tetramethylammonium perfluorooctanoate] + O
Details	electrical conductivity [S/m]
288.15 K, c1 = 0.001316	0.00725
288.15 K, c1 = 0.002597	0.0135
288.15 K, c1 = 0.003846	0.01958
288.15 K, c1 = 0.005063	0.0253
288.15 K, c1 = 0.00625	0.0306
288.15 K, c1 = 0.007407	0.0357
288.15 K, c1 = 0.008536	0.0405
288.15 K, c1 = 0.009638	0.0451
288.15 K, c1 = 0.01071	0.0494
288.15 K, c1 = 0.01176	0.0536
288.15 K, c1 = 0.01279	0.0574
288.15 K, c1 = 0.01379	0.0598
288.15 K, c1 = 0.01477	0.0611
288.15 K, c1 = 0.01573	0.0622
288.15 K, c1 = 0.01704	0.0637
288.15 K, c1 = 0.01848	0.0656
288.15 K, c1 = 0.02004	0.0675
288.15 K, c1 = 0.02171	0.0693
288.15 K, c1 = 0.02331	0.0714
288.15 K, c1 = 0.02485	0.0732
293.15 K, c1 = 0.001316	0.00808
293.15 K, c1 = 0.002597	0.01512
293.15 K, c1 = 0.003846	0.0218
293.15 K, c1 = 0.005063	0.0282
293.15 K, c1 = 0.00625	0.0341
293.15 K, c1 = 0.007407	0.0401
293.15 K, c1 = 0.008537	0.0455
293.15 K, c1 = 0.009638	0.0503
293.15 K, c1 = 0.01071	0.0551
293.15 K, c1 = 0.01176	0.0597
293.15 K, c1 = 0.01279	0.0634
293.15 K, c1 = 0.01379	0.0657
293.15 K, c1 = 0.01477	0.0675
293.15 K, c1 = 0.01573	0.0691
293.15 K, c1 = 0.01667	0.0706
293.15 K, c1 = 0.01803	0.0726
293.15 K, c1 = 0.01935	0.0745
293.15 K, c1 = 0.02063	0.0764
293.15 K, c1 = 0.02187	0.0781
293.15 K, c1 = 0.02347	0.0803
293.15 K, c1 = 0.025	0.0825
298.15 K, c1 = 0.001234	0.0087
298.15 K, c1 = 0.002439	0.01642
298.15 K, c1 = 0.003614	0.0236
298.15 K, c1 = 0.004762	0.0304
298.15 K, c1 = 0.005882	0.0371
298.15 K, c1 = 0.006977	0.0435
298.15 K, c1 = 0.008046	0.0498
298.15 K, c1 = 0.009091	0.0554
298.15 K, c1 = 0.01011	0.0612
298.15 K, c1 = 0.01111	0.0661
298.15 K, c1 = 0.01209	0.0713
298.15 K, c1 = 0.01304	0.0744
298.15 K, c1 = 0.01398	0.0766
298.15 K, c1 = 0.01489	0.0785
298.15 K, c1 = 0.01579	0.0801
298.15 K, c1 = 0.0171	0.0823
298.15 K, c1 = 0.01837	0.0844
298.15 K, c1 = 0.02	0.087
298.15 K, c1 = 0.02157	0.0895
298.15 K, c1 = 0.02308	0.092
298.15 K, c1 = 0.02453	0.0944
298.15 K, c1 = 0.02593	0.0968
303.15 K, c1 = 0.001316	0.00997
303.15 K, c1 = 0.002597	0.01874
303.15 K, c1 = 0.003846	0.0272
303.15 K, c1 = 0.005063	0.0352
303.15 K, c1 = 0.00625	0.0427
303.15 K, c1 = 0.007407	0.0498
303.15 K, c1 = 0.008537	0.0566
303.15 K, c1 = 0.009638	0.063
303.15 K, c1 = 0.01071	0.0691
303.15 K, c1 = 0.01176	0.0748
303.15 K, c1 = 0.01279	0.0795
303.15 K, c1 = 0.01379	0.0823
303.15 K, c1 = 0.01477	0.0844
303.15 K, c1 = 0.01573	0.0864
303.15 K, c1 = 0.01667	0.0884
303.15 K, c1 = 0.01803	0.0912
303.15 K, c1 = 0.01935	0.0938
303.15 K, c1 = 0.02063	0.0964
303.15 K, c1 = 0.02187	0.0988
303.15 K, c1 = 0.02347	0.1017
303.15 K, c1 = 0.025	0.1045
308.15 K, c1 = 0.001316	0.01109
308.15 K, c1 = 0.002597	0.0209
308.15 K, c1 = 0.003846	0.0302
308.15 K, c1 = 0.005063	0.0388
308.15 K, c1 = 0.00625	0.0475
308.15 K, c1 = 0.007407	0.0554
308.15 K, c1 = 0.008536	0.0626
308.15 K, c1 = 0.009638	0.07
308.15 K, c1 = 0.01071	0.077
308.15 K, c1 = 0.01176	0.0828
308.15 K, c1 = 0.01279	0.0888
308.15 K, c1 = 0.01379	0.0918
308.15 K, c1 = 0.01477	0.095
308.15 K, c1 = 0.01573	0.0969
308.15 K, c1 = 0.01667	0.0996
308.15 K, c1 = 0.01758	0.101
308.15 K, c1 = 0.01848	0.1029
308.15 K, c1 = 0.02021	0.1067
308.15 K, c1 = 0.02188	0.1102
308.15 K, c1 = 0.02347	0.1136
308.15 K, c1 = 0.025	0.1168
308.15 K, c1 = 0.02647	0.1208
313.15 K, c1 = 0.001316	0.01241
313.15 K, c1 = 0.002597	0.0231
313.15 K, c1 = 0.003846	0.0333
313.15 K, c1 = 0.005063	0.0428
313.15 K, c1 = 0.00625	0.0521
313.15 K, c1 = 0.007407	0.0608
313.15 K, c1 = 0.008537	0.0687
313.15 K, c1 = 0.009638	0.0765
313.15 K, c1 = 0.01071	0.0841
313.15 K, c1 = 0.01176	0.0905
313.15 K, c1 = 0.01279	0.0971
313.15 K, c1 = 0.01379	0.1009
313.15 K, c1 = 0.01477	0.1039
313.15 K, c1 = 0.01573	0.1067
313.15 K, c1 = 0.01667	0.1091
313.15 K, c1 = 0.01803	0.1125
313.15 K, c1 = 0.01935	0.1158
313.15 K, c1 = 0.02063	0.119
313.15 K, c1 = 0.02187	0.122
313.15 K, c1 = 0.02347	0.1258
313.15 K, c1 = 0.025	0.1294
318.15 K, c1 = 0.001316	0.01322
318.15 K, c1 = 0.002597	0.0253
318.15 K, c1 = 0.003846	0.0367
318.15 K, c1 = 0.005063	0.0466
318.15 K, c1 = 0.00625	0.0564
318.15 K, c1 = 0.007407	0.0659
318.15 K, c1 = 0.008536	0.0745
318.15 K, c1 = 0.009638	0.0838
318.15 K, c1 = 0.01071	0.0921
318.15 K, c1 = 0.01176	0.0993
318.15 K, c1 = 0.01279	0.1064
318.15 K, c1 = 0.01379	0.1119
318.15 K, c1 = 0.01477	0.1156
318.15 K, c1 = 0.01573	0.1188
318.15 K, c1 = 0.01667	0.1218
318.15 K, c1 = 0.01803	0.1263
318.15 K, c1 = 0.01935	0.1307
318.15 K, c1 = 0.02105	0.1349
318.15 K, c1 = 0.02268	0.14
318.15 K, c1 = 0.02424	0.1434
318.15 K, c1 = 0.02574	0.1473
